Measurements taken from patent US12083094B2, “Cannabinoid composition and methods of treatment using the same” (CANNPAL ANIMAL THERAPEUTICS LIMITED, priority 2018, dated 2024).

Assay: Blood sampling for THC and CBD plasma concentration after single oral dosing
Conditions: oral
Method: Two compositions, IVP1 and IVP2, were administered in varying amounts in the study.
Dosage volumes were calculated prior to Day 0, to provide the target dosage in mg/kg bodyweight based on actual dog bodyweights and IVP active ingredient composition based on the Certificates of Analysis.
Blood samples of approximately 5 mL were collected at each drug concentration sampling time-point from each animal using 22-gauge needles and 5 mL syringes.
The data points from Table 4 and Table 5 were also plotted and these graphs are set out in FIGS. 1-16.

[1] = dog, plasma, CBD concentration in blood plasma, individual dogs 1-4, 0.12 mg/kg CBD + 0.24 mg/kg THC oral once
[2] = dog, plasma, CBD concentration in blood plasma, individual dogs 5-8, 0.24 mg/kg CBD + 0.12 mg/kg THC oral once
[3] = dog, plasma, CBD concentration in blood plasma, mean of dogs 1-4, 0.12 mg/kg CBD + 0.24 mg/kg THC oral once
[4] = dog, plasma, CBD concentration in blood plasma, mean of dogs 5-8, 0.24 mg/kg CBD + 0.12 mg/kg THC oral once

C=C(C)[C@@H]1CCC(C)=C[C@H]1c1c(O)cc(CCCCC)cc1O [CBD, Cannabidiol]
AUC of CBD after 0.12 mg/kg THC/0.24 mg/kg CBD relative to AUC of CBD after 0.24 mg/kg THC/0.12 mg/kg CBD (canine): more than twice | concentration at 0 h [1]: 0 ng/mL | concentration at 1.5 h [1]: 7.5 ng/mL | concentration at 2 h [1]: 6.27 ng/mL | concentration at 32 h [1]: 0 ng/mL | concentration at 0 h [2]: 0 ng/mL | concentration at 2 h [2]: 23.7 ng/mL | concentration at 3 h [2]: 9.21 ng/mL | concentration at 4 h [2]: 5.28 ng/mL | concentration at 12 h [2]: 0.88 ng/mL | concentration at 16 h [2]: 0.55 ng/mL | concentration at 24 h [2]: 0.38 ng/mL | concentration at 32 h [2]: 0.28 ng/mL | concentration at 72 h (dog, plasma, CBD concentration in blood plasma, individual dogs 5-8, 0.24 mg/kg CBD + 0.12 mg/kg THC oral once, 72 h): 0 ng/mL | concentration at 0 h [3]: 0 ng/mL | concentration at 0.67 h [3]: 12.3 ng/mL | concentration at 1 h [3]: 11.2 ng/mL | concentration at 1.5 h [3]: 8.6 ng/mL | concentration at 2 h [3]: 6.89 ng/mL | concentration at 3 h [3]: 4.31 ng/mL | concentration at 4 h [3]: 2.9 ng/mL | concentration at 6 h [3]: 2.02 ng/mL | concentration at 8 h [3]: 1.3 ng/mL | concentration at 12 h [3]: 0.41 ng/mL | concentration at 16 h [3]: 0.16 ng/mL | concentration at 24 h [3]: 0.11 ng/mL | concentration at 32 h [3]: 0 ng/mL | concentration at 0 h [4]: 0 ng/mL | concentration at 0.67 h [4]: 30.1 ng/mL | concentration at 1 h [4]: 35.8 ng/mL | concentration at 1.5 h [4]: 26.9 ng/mL | concentration at 2 h [4]: 17.9 ng/mL | concentration at 3 h [4]: 7.5 ng/mL | concentration at 4 h [4]: 4.53 ng/mL | concentration at 6 h [4]: 3.31 ng/mL | concentration at 8 h [4]: 2.79 ng/mL | concentration at 12 h [4]: 0.77 ng/mL | concentration at 16 h [4]: 0.54 ng/mL | concentration at 24 h [4]: 0.35 ng/mL
